This is an account of results in US9630949B2, “Oxoazetidine derivatives, process for the preparation thereof and use thereof in human medicine and in cosmetics” (GALDERMA RESEARCH & DEVELOPMENT, priority 2008, dated 2017).

One test concerns the target hMC1R (Homo sapiens (Human), UniProt Q01726). In words: Transactivation test: melanocortin receptors (pCRE-Luc luciferase reporter), hMC1R. In kind it is cell-based. The note with it: HEK293 transfected with pCRE-Luc and hMC1R; products tested alone (agonist), 6 h incubation; % activity vs NDP-MSH 10 nM; IA: inactive. The method in brief:
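HEK293 cells carrying the pCRE-Luc reporter and hMC1R vectors were grown in DMEM with 10% foetal calf serum at 37° C., 5% CO2, then plated at 5000 cells per well in 384-well plates in serum-free DMEM overnight. Products dissolved at 10 mM in DMSO were added alone as 10-point, 4-fold dilutions from 10 μM (0.1% DMSO) and incubated 6 h. Luciferase luminescence was read on Top-Count after lysis with luciferin, normalized to NDP-MSH 10 nM (100%) and cells alone (0%), and EC50 in nM derived with XLFit.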

In a further test the target is hMC4R (Homo sapiens (Human), UniProt P32245). In words: Transactivation test: melanocortin receptors (pCRE-Luc luciferase reporter), hMC4R. In kind it is cell-based. The note with it: HEK293 transfected with pCRE-Luc and hMC4R; products tested alone (agonist), 6 h incubation; % activity vs NDP-MSH 10 nM; IA: inactive.
Sequence of hMC4R (P32245 whole entry): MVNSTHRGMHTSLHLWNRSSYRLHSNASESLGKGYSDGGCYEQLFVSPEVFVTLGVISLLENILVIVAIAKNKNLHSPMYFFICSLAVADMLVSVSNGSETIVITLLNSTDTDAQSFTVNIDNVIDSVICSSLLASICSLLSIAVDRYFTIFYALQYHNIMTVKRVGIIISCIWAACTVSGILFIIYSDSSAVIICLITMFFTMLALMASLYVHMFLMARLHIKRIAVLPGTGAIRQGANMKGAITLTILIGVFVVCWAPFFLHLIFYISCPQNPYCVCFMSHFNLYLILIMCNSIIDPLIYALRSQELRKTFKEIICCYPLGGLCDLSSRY

Sequence of hMC1R (Q01726 whole entry): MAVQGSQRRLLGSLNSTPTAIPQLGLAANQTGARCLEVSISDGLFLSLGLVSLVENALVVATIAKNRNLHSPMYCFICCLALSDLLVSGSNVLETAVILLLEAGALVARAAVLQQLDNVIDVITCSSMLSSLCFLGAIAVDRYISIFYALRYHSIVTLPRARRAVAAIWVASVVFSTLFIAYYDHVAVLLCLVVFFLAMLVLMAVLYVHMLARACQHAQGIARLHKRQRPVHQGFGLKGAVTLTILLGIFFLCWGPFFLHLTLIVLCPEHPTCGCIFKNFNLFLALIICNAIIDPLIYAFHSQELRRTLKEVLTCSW

As for `CCCCCOC1(c2ccccc2C)CN(C(=O)[C@@H](Cc2ccc(OC)cc2)NC(=O)CCc2c[nH]cn2)C1` [Compound 24, N-[(R)-1-(4-methoxybenzyl)-2-oxo-2-(3-pentyloxy-3-o-tolylazetidin-1-yl)ethyl]-3-(1H-imidazol-4-yl)propionamide], the figures for the half-maximal effective concentration (EC50) on hMC1R and at hMC4R were 0.25 µM and 4 µM, respectively.
For `COc1ccc(C[C@@H](NC(=O)CCc2c[nH]cn2)C(=O)N2CC(OCC3CC3)(c3ccccc3C)C2)cc1` [Compound 20, N-[(R)-2-(3-cyclopropylmethoxy-3-o-tolylazetidin-1-yl)-1-(4-methoxybenzyl)-2-oxoethyl]-3-(1H-imidazol-4-yl)propionamide], in that order: 0.12 µM and 4 µM.
As for `CCCCCC1(c2ccccc2)CN(C(=O)[C@@H](Cc2ccc(OC)cc2)NC(=O)CCc2cncn2C)C1` [Compound 64, N-[(R)-1-(4-methoxybenzyl)-2-oxo-2-(3-pentyl-3-phenylazetidin-1-yl)ethyl]-3-(3-methyl-3H-imidazol-4-yl)propionamide], the EC50 on hMC1R stood at 2 µM; on hMC4R it was 0.5 µM.
For `CCCCCC1(c2ccccc2)CN(C(=O)[C@@H](Cc2ccc(F)c(F)c2)NC(=O)CCc2c[nH]cn2)C1` [Compound 53, N-[(R)-1-(3,4-difluorobenzyl)-2-oxo-2-(3-pentyl-3-phenylazetidin-1-yl)ethyl]-3-(1H-imidazol-4-yl)propionamide], in that order: 1 µM and 4 µM.
The like results for `COc1ccc(C[C@@H](NC(=O)CCc2c[nH]cn2)C(=O)N2CC(OCCCC(F)(F)F)(c3ccccc3C)C2)cc1` [Compound 78] were, in that order, 0.12 µM and 2 µM.
For `CCOC1(c2ccccc2C)CN(C(=O)[C@H](Cc2ccc(OC)cc2)NC(=O)CCc2c[nH]cn2)C1` [Compound 13, N-[(S)-2-(3-ethoxy-3-o-tolylazetidin-1-yl)-1-(4-methoxybenzyl)-2-oxoethyl]-3-(1H-imidazol-4-yl)propionamide], in that order: 2 µM and 15 µM.
Turning to `CCCCCC1(c2ccccc2)CN(C(=O)[C@@H](Cc2ccc(F)cc2)NC(=O)CCc2c[nH]cn2)C1` [Compound 46, N-[(R)-1-(4-fluorobenzyl)-2-oxo-2-(3-pentyl-3-phenylazetidin-1-yl)ethyl]-3-(1H-imidazol-4-yl)propionamide], the EC50 at hMC1R stood at 1 µM; on hMC4R, 4 µM.
For `CCCCOC1(c2ccccc2)CN(C(=O)[C@H](Cc2ccc(OC)cc2)NC(=O)[C@H](Cc2c[nH]cn2)NC(=O)c2ccccc2)C1` [Compound 3, N-[(S)-1-[(S)-2-(3-butoxy-3-phenylazetidin-1-yl)-1-(4-methoxybenzyl)-2-oxoethylcarbamoyl]-2-(1H-imidazol-4-yl)ethyl]benzamide], in that order: 0.06 µM and 4 µM.
The like results for `CCCCOC1(c2ccccc2)CN(C(=O)[C@@H](CC2CCCCC2)NC(=O)CCc2c[nH]cn2)C1` [Compound 18, N-[(R)-2-(3-butoxy-3-phenylazetidin-1-yl)-1-cyclohexylmethyl-2-oxoethyl]-3-(1H-imidazol-4-yl)propionamide] were, in that order, 8 µM and 8 µM.
Regarding `CCCCCC1(c2ccccc2)CN(C(=O)[C@@H](Cc2ccc(OC)cc2)NC(=O)CCc2c[nH]cn2)C1` [Compound 26, N-[(R)-1-(4-methoxybenzyl)-2-oxo-2-(3-pentyl-3-phenylazetidin-1-yl)ethyl]-3-(1H-imidazol-4-yl)propionamide], the EC50 at hMC1R was 0.5 µM; at hMC4R, 4 µM.
For `CCCCOC1(c2ccccc2)CN(C(=O)[C@@H](Cc2ccc(F)cc2)NC(=O)CCc2c[nH]cn2)C1` [Compound 33, N-[(R)-2-(3-butoxy-3-phenylazetidin-1-yl)-1-(4-fluorobenzyl)-2-oxoethyl]-3-(1H-imidazol-4-yl)propionamide], in that order: 0.5 µM and 2 µM.
Take `CCCCCCOC1(c2ccccc2C)CN(C(=O)[C@@H](Cc2ccc(OC)cc2)NC(=O)CCc2c[nH]cn2)C1` [Compound 25, N-[(R)-2-(3-hexyloxy-3-o-tolylazetidin-1-yl)-1-(4-methoxybenzyl)-2-oxoethyl]-3-(1H-imidazol-4-yl)propionamide]: the EC50 came out at 1 µM on hMC1R and 8 µM on hMC4R.
`COc1ccc(C[C@H](NC(=O)CCc2c[nH]cn2)C(=O)N2CC(O)(c3ccccc3C)C2)cc1` [Compound 11, N-[(S)-2-(3-hydroxy-3-o-tolylazetidin-1-yl)-1-(4-methoxybenzyl)-2-oxoethyl]-3-(1H-imidazol-4-yl)propionamide]: the EC50 at hMC1R amounted to 4 µM; at hMC4R, 8 µM.
Regarding `CCCCCC1(c2ccccc2)CN(C(=O)[C@@H](Cc2ccc(Cl)c(Cl)c2)NC(=O)CCc2c[nH]cn2)C1` [Compound 52, N-[(R)-1-(3,4-dichlorobenzyl)-2-oxo-2-(3-pentyl-3-phenylazetidin-1-yl)ethyl]-3-(1H-imidazol-4-yl)propionamide], the values for the EC50 on hMC1R and on hMC4R were 2 µM and 0.25 µM, respectively.
Take `CCCCOC1(c2ccccc2F)CN(C(=O)[C@@H](Cc2ccc(OC)cc2)NC(=O)CCc2c[nH]cn2)C1` [Compound 68, N-[(R)-2-[3-Butoxy-3-(2-fluorophenyl)azetidin-1-yl]-1-(4-methoxybenzyl)-2-oxoethyl]-3-(1H-imidazol-4-yl)propionamide]: the EC50 at hMC1R amounted to 0.06 µM; on hMC4R, 2 µM.
As to `CCCCC1(c2ccccc2)CN(C(=O)[C@@H](Cc2ccc(OC)cc2)NC(=O)CCc2c[nH]cn2)C1` [Compound 27, N-[(R)-2-(3-butyl-3-phenylazetidin-1-yl)-1-(4-methoxybenzyl)-2-oxoethyl]-3-(1H-imidazol-4-yl)propionamide], the EC50 at hMC1R is 0.5 µM; on hMC4R it was 8 µM.
For `CCCCOC1(c2ccccc2C)CN(C(=O)C(NC(=O)CCc2c[nH]cn2)C(O)c2ccc(OC)cc2)C1` (stereo not drawn) [Compound 73, N-[1-(3-Butoxy-3-o-tolylazetidine-1-carbonyl)-2-hydroxy-2-(4-methoxyphenyl)ethyl]-3-(1H-imidazol-4-yl)propionamide], in that order: 0.5 µM and 8 µM.
For the molecule `CCCCCC1(c2ccccc2C)CN(C(=O)[C@@H](Cc2ccc(OC)cc2)NC(=O)CCc2c[nH]cn2)C1` [Compound 37, N-[(R)-1-(4-methoxybenzyl)-2-oxo-2-(3-pentyl-3-o-tolylazetidin-1-yl)ethyl]-3-(1H-imidazol-4-yl)propionamide], the half-maximal effective concentration (EC50) on hMC1R was found to be 0.25 µM; on hMC4R it was 2 µM.
The like results for `CCCCCC1(c2ccc(F)cc2F)CN(C(=O)[C@@H](Cc2ccc(OC)cc2)NC(=O)CCc2c[nH]cn2)C1` [Compound 49, N-[(R)-2-[3-(2,4-difluorophenyl)-3-pentylazetidin-1-yl]-1-(4-methoxybenzyl)-2-oxoethyl]-3-(1H-imidazol-4-yl)propionamide] were, in that order, 0.015 µM and 2 µM.
For `CCCCOC1(c2ccccc2C)CN(C(=O)[C@@H](Cc2ccc(OC)cc2)NC(=O)CCc2cncn2C)C1` [Compound 67, N-[(R)-2-(3-butoxy-3-o-tolylazetidin-1-yl)-1-(4-methoxybenzyl)-2-oxoethyl]-3-(3-methyl-3H-imidazol-4-yl)propionamide], in that order: 0.5 µM and 0.5 µM.
As to `CCCCOC1(c2ccccc2C)CN(C(=O)C(Cc2ccc(OC)cc2)NC(=O)CC(CC)c2c[nH]cn2)C1` (stereo not drawn) [Compound 63, N-[2-(3-butoxy-3-o-tolylazetidin-1-yl)-1-(4-methoxybenzyl)-2-oxoethyl]-3-(1H-imidazol-4-yl)pentyramide], the EC50 on hMC1R and on hMC4R was 0.5 µM each time.
As to `CC#CCC1(c2ccccc2C)CN(C(=O)[C@@H](Cc2ccc(OC)cc2)NC(=O)CCc2c[nH]cn2)C1` [Compound 75, N-[(R)-2-(3-But-2-ynyl-3-o-tolylazetidin-1-yl)-1-(4-methoxybenzyl)-2-oxoethyl]-3-(1H-imidazol-4-yl)propionamide], the figures for the EC50 on hMC1R and at hMC4R were 0.06 µM and 4 µM, respectively.
For `CCCCOC1(c2ccccc2C)CN(C(=O)[C@@H](Cc2ccc(OC)cc2)NC(=O)CCc2c[nH]nn2)C1` [Compound 39, N-[(R)-2-(3-butoxy-3-o-tolylazetidin-1-yl)-1-(4-methoxybenzyl)-2-oxoethyl]-3-(1H-[1,2,3]triazol-4-yl)propionamide], in that order: 8 µM and 2 µM.
Regarding `COc1ccc(C[C@@H](NC(=O)CCc2c[nH]cn2)C(=O)N2CC(OCC3CC3)(c3ccccc3)C2)cc1` [Compound 28, N-[(R)-2-(3-cyclopropylmethoxy-3-phenylazetidin-1-yl)-1-(4-methoxybenzyl)-2-oxoethyl]-3-(1H-imidazol-4-yl)propionamide], the EC50 at hMC1R came to 1 µM; on hMC4R, 8 µM.
